Test results reported in paper PMC5618426, “APETx4, a Novel Sea Anemone Toxin and a Modulator of the Cancer-Relevant Potassium Channel KV10.1” (Marine Drugs, 2017).

Key:
KV2.1 = conditions: ref [46]; cited from earlier work
From the text: APETx1 is proposed to bind to the voltage sensor paddle of hERG. In particular, the negative charge of E518 is expected to form an electrostatic interaction with the toxin [44]. Several other kinds of gating modifier toxins also bind to the extracellular exposed part of the S3–S4 domain. More precisely by binding to a glutamic acid residue and several hydrophobic amino acid residues. An example of these toxins is Hanatoxin (HaTx1) from the tarantula Grammostola spatulata.

hERG = conditions: cited from earlier work
ASIC3 = conditions: cited from earlier work
KV10.1 = KV10.1 inhibition by related toxins (unpublished data); type: cell-based

In the case of “HaTx1: toxin from the tarantula Grammostola spatulata (ECRYLFGGCKTTSDCCKHLGCKFRDKYCAWDFTFS; UniProt P56852 50-84, looked up)”, the “gating modification of KV2.1” value (KV2.1) is listed as “modifies the channel gating of KV2.1”.
For `COc1ccc(CCN2CCC(Nc3nc4ccccc4n3Cc3ccc(F)cc3)CC2)cc1` [astemizole], the “block of hERG (KV11.1)” value (hERG) is listed as “block the cardiac human Eag-related gene (hERG, KV11.1)”.
In the case of APETx2, the IC50 (ASIC3) is listed as ~63 nM, the “effect on KV10.1” value (KV10.1) is listed as “no effect on KV10.1” and the IC50 (hERG) is listed as ~1200 nM.
